Experimental data from patent publication US12692253B2, “Antimicrobial compounds and methods” (Curza Global, LLC, priority 2019, dated 2026).

How the values were obtained:
[1] = test system: E. coli S30 extract (bacterial protein synthesis); assay: E. coli S30 extract coupled transcription-translation luciferase assay (inhibition of bacterial protein synthesis); assay type: biochemical; conditions: class by IC50 or % inhibition @ 1 μM, read-out: S30 IC50 (μM/% inhib.)
How it was run: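 Coupled transcription-translation in E. coli S30 circular-DNA extract expressing luciferase from pBESTluc, with 8-point 2-fold compound dilutions; 1 hour at 37 °C, stopped at 4 °C. Luminescence read; % inhibition versus no-inhibitor wells, no-DNA wells as background.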

[2] = biological target: Rabbit Reticulocyte Lysate (eukaryotic protein synthesis); assay: Rabbit reticulocyte lysate luciferase assay (inhibition of eukaryotic protein synthesis); assay type: biochemical; conditions: class by IC50 or % inhibition @ 1 μM, read-out: Rabbit reticulocyte IC50 (μM/% inhib.)
How it was run: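 In vitro translation of luciferase control RNA in nuclease-treated rabbit reticulocyte lysate with amino acid mixture, compounds in 2-fold serial dilution, 90 minutes at 30° C. Luminescence read after luciferase reagent; % inhibition relative to water no-inhibitor controls, with no-RNA background wells.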

[3] = test system: A. baumannn (Ab); assay: Broth microdilution minimum inhibitory concentration (MIC), CLSI; assay type: cell-based; conditions: for MIC: Acinetobacter baumannii, read-out: Ab + bicarb MIC
How it was run: (§1)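 Two-fold serial dilutions in CAMHB, optionally with sodium bicarbonate (6.25 or 25 mM final) or heat-inactivated human serum (0-50%), 8 concentrations, triplicate. Inoculum 5×10^4 CFU/well from log-phase cultures grown at 35±2 °C to 0.5 McFarland.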

[4] = test system: E. coli (Ec); assay: as above; assay type: cell-based; conditions: growth medium supplemented with sodium bicarbonate; for MIC: Escherichia coli, read-out: E. coli + bicarb MIC
How it was run: as §1

[5] = test system: E. faecalis (Ef); assay: as above; assay type: cell-based; conditions: growth medium supplemented with sodium bicarbonate; for MIC: Enterococcus faecalis, read-out: Ef + bicarb MIC
How it was run: as §1

[6] = test system: P. aeruginosa (Pa); assay: as above; assay type: cell-based; conditions: growth medium supplemented with sodium bicarbonate; for MIC: Pseudomonas aeruginosa, read-out: Pa MIC + bicarb
How it was run: as §1

[7] = test system: S. aureus (Sa); assay: as above; assay type: cell-based; conditions: growth medium supplemented with sodium bicarbonate; for MIC: Staphylococcus aureus, read-out: Sa + bicarb MIC
How it was run: as §1

| SMILES | IC50 [1] | IC50 [2] | MIC [3] | MIC [4] | MIC [5] | MIC [6] | MIC [7] | Ab + bicarb MIC ([3]; A. baumannii, growth medium supplemented with sodium bicarbonate) | E. coli + bicarb MIC [4] | Ef + bicarb MIC [5] | Pa MIC + bicarb [6] | Sa + bicarb MIC [7] |
| --- | --- | --- | --- | --- | --- | --- | --- | --- | --- | --- | --- | --- |
| CC(C)(N)C(=O)N1CCN(C(=O)Nc2ccn(-c3ccc(CN4CCC5(CC4)CC(N)C5)cc3)c(=O)n2)CC1 [Compound 33] | < 0.5 µM | ≥ 1 µM | 8 to 32 µg/mL | < 8 µg/mL | < 8 µg/mL | 8 to 32 µg/mL | < 8 µg/mL |  |  |  |  |  |
| CC(C)(N)C(=O)N1CCN(C(=O)Nc2ccn(-c3ccc(CN4CC5(CC(N)C5)C4)cc3)c(=O)n2)CC1 [Compound 34] | < 0.5 µM | ≥ 1 µM | > 32 µg/mL | < 8 µg/mL | 8 to 32 µg/mL | > 32 µg/mL | < 8 µg/mL |  |  |  |  |  |
| C[C@@](N)(CO)C(=O)N1CCN(C(=O)Nc2ccn(-c3ccc(CN4C[C@@H]5[C@@H](N)[C@@H]5C4)cc3)c(=O)n2)CC1 [Compound 40] | < 0.5 µM | ≥ 1 µM | > 32 µg/mL | < 8 µg/mL | < 8 µg/mL | > 32 µg/mL | < 8 µg/mL |  |  |  |  |  |
| NCC[C@H](N)C(=O)N1CCN(C(=O)Nc2ccn(-c3ccc(CN4C[C@@H]5[C@@H](N)[C@@H]5C4)cc3)c(=O)n2)CC1 [Compound 41] | ≥ 1 µM | ≥ 1 µM | > 32 µg/mL | > 32 µg/mL | > 32 µg/mL | > 32 µg/mL | > 32 µg/mL |  |  |  |  |  |
| CC(C)(N)C(=O)N1CCN(C(=O)Nc2ccn(-c3ccc(CN4CC5CC(N)C5C4)cc3)c(=O)n2)CC1 (stereo not shown) [Compound 42] | < 0.5 µM | ≥ 1 µM | > 32 µg/mL | < 8 µg/mL | 8 to 32 µg/mL | > 32 µg/mL | 8 to 32 µg/mL |  |  |  |  |  |
| C[C@@H]1CN(C(=O)Nc2ccn(-c3ccc(CN4C[C@@H]5[C@@H](N)[C@@H]5C4)cc3)c(=O)n2)CCN1C(=O)[C@@](C)(N)CO [Compound 45] | < 0.5 µM | ≥ 1 µM | > 32 µg/mL | < 8 µg/mL | < 8 µg/mL | 8 to 32 µg/mL | < 8 µg/mL |  |  |  |  |  |
| CC(C)(N)CC1CCN(C(=O)Nc2ccn(-c3ccc(CN4C[C@@H]5[C@@H](N)[C@@H]5C4)cc3)c(=O)n2)CC1 [Compound 48] | 0.5 to 1 µM | ≥ 1 µM | > 32 µg/mL | < 8 µg/mL | 8 to 32 µg/mL | > 32 µg/mL | < 8 µg/mL |  |  |  |  |  |
| NC1CC2(CCN(C(=O)Nc3ccn(-c4ccc(CN5C[C@@H]6[C@@H](N)[C@@H]6C5)cc4)c(=O)n3)CC2)C1 [Compound 49] | < 0.5 µM | ≥ 1 µM | > 32 µg/mL | < 8 µg/mL | 8 to 32 µg/mL | > 32 µg/mL | < 8 µg/mL |  |  |  |  |  |
| COC[C@@](C)(N)C(=O)N1CCN(C(=O)Nc2ccn(-c3ccc(CN4C[C@@H]5[C@@H](N)[C@@H]5C4)cc3)c(=O)n2)CC1 [Compound 53] | 0.5 to 1 µM | ≥ 1 µM | > 32 µg/mL | < 8 µg/mL | < 8 µg/mL | > 32 µg/mL | < 8 µg/mL |  |  |  |  |  |
| CC(C)(N)C1CN(C(=O)Nc2ccn(-c3ccc(CN4C[C@@H]5[C@@H](N)[C@@H]5C4)cc3)c(=O)n2)CCO1 (stereo partly shown) [Compound 56] | ≥ 1 µM | ≥ 1 µM | > 32 µg/mL | 8 to 32 µg/mL | > 32 µg/mL | > 32 µg/mL | > 32 µg/mL |  |  |  |  |  |
| CC(C)(N)C(=O)N1CCN(C(=O)Nc2ccn(-c3ccc(CN4C5CCC4CC(N)C5)cc3)c(=O)n2)CC1 (stereo not shown) [Compound 58] | < 0.5 µM | ≥ 1 µM | > 32 µg/mL | < 8 µg/mL | 8 to 32 µg/mL | > 32 µg/mL | < 8 µg/mL |  |  |  |  |  |
| CC(C)(N)C(=O)N1CCN(C(=O)Nc2ccn(-c3ccc(CN4C5CCC4CC(N)C5)cc3)c(=O)n2)CC1 (stereo not shown) [Compound 59] | < 0.5 µM | ≥ 1 µM |  |  |  |  |  | + (An MIC (μg/mL) value that is 32 μg/mL or greater) | +++ (An MIC value (μg/mL) that is less than 8 μg/mL) | +++ (An MIC value (μg/mL) that is less than 8 μg/mL) | + (An MIC (μg/mL) value that is 32 μg/mL or greater) | +++ (An MIC value (μg/mL) that is less than 8 μg/mL) |
| CC(C)(N)C(=O)N1CCN(C(=O)Nc2ccn(-c3ccc(CN4CC5(CCC5N)C4)cc3)c(=O)n2)CC1 (stereo not shown) [Compound 60] | < 0.5 µM | ≥ 1 µM | > 32 µg/mL | < 8 µg/mL | > 32 µg/mL | > 32 µg/mL | < 8 µg/mL |  |  |  |  |  |
